{"source": "patent US9187484B2", "about": "(Southern Research Institute, priority 2012, dated 2015)", "key": {"LRRK2 (G2019S)": {"target": "T1, LRRK2 (G2019S) (Homo sapiens, UniProt Q5S007, G2019S)", "T1 construct": "Recombinant GST-LRRK2 (delta970), purified from baculovirus infected insect cells (SF9); GST (N); host or cells: baculovirus infected insect cells (SF9)", "T1 sequence (Q5S007 970-2527 G2019S limits assumed)": "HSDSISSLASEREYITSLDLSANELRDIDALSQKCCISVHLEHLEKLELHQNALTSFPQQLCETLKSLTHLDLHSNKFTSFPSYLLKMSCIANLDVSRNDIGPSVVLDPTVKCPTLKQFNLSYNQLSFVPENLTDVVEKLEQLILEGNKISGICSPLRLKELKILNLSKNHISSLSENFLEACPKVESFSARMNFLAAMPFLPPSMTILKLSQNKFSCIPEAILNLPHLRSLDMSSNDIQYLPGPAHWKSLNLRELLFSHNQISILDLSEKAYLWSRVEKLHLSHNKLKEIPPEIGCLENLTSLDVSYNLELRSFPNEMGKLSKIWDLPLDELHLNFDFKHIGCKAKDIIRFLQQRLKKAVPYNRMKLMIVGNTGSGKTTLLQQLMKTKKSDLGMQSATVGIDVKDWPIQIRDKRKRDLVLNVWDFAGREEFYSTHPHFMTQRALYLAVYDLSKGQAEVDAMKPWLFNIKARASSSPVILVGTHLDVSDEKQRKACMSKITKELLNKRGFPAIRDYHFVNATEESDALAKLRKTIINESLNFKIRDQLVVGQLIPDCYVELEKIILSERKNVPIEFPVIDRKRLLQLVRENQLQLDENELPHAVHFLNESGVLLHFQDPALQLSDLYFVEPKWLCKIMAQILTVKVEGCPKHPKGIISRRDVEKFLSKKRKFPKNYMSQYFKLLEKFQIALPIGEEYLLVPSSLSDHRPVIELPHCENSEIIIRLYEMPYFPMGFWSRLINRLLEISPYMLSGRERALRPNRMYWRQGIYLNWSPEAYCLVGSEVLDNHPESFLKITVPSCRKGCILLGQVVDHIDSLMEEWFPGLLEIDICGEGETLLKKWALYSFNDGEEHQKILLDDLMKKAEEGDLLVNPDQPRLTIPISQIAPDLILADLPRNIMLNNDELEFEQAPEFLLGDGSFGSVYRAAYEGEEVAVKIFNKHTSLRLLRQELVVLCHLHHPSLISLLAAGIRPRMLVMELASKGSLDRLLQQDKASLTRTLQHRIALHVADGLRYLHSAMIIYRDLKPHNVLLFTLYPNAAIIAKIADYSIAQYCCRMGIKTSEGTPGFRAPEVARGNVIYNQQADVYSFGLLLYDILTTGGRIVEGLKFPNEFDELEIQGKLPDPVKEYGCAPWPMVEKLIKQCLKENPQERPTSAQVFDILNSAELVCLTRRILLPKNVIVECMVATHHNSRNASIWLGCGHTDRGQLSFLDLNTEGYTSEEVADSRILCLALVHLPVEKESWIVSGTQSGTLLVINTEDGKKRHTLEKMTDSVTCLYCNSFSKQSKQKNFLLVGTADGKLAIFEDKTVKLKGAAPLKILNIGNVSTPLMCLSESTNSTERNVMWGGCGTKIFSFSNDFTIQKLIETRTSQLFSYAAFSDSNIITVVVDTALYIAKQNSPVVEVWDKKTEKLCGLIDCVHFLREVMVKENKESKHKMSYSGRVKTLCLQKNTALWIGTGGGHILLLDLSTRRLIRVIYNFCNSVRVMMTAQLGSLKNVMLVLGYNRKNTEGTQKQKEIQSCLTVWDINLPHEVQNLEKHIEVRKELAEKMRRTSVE", "test": "LRRK2 inhibition, radiometric kinase assay with recombinant GST-LRRK2 (delta970) and peptide substrate", "assay_type": "biochemical", "details": "GST-LRRK2 (delta970) G2019S 30 nM, ATP ~52 μM (Km), 30 min at 30° C.", "summary_of_the_method": "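Recombinant GST-LRRK2 (delta970) from SF9 cells, wild-type or G2019S, at 30 nM in 50 mM Tris HCl pH 7.4, 1 mM EDTA with 50 μM peptide substrate and 0.1% DMSO. ATP at Km (˜92 μM WT, ˜52 μM G2019S) with 10 mM MgCl2 and gamma-32-P label; 30 min at 30° C. Phosphocellulose capture, scintillation counting.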"}, "WT-LRRK2 or G2019S-LRRK2": {"tested_on": "WT-LRRK2 or G2019S-LRRK2", "test": "Inhibition of LRRK2 phosphorylation (pS935 antibody) in lysates of transfected HEK-293T cells", "assay_type": "cell-based", "details": "HEK-293T cells transiently transfected with either WT-LRRK2 or G2019S-LRRK2", "description": "To test whether Example 90 and Example 34 can inhibit LRRK2 phosphorylation, an antibody commercially available from Epitomics directed against the serine residue number 935 on LRRK2 from lysates generated from HEK-293T cells transiently transfected with either WT-LRRK2 or G2019S-LRRK2 protein."}, "G2019S-LRRK2": {"tested_on": "G2019S-LRRK2", "test": "LPS-induced TNF-alpha in primary macrophages over-expressing G2019S-LRRK2", "assay_type": "cell-based, mice", "details": "5 μM 1 hour prior to LPS stimulation (100 ng/ml), TNF-alpha measured 6 hours later", "description": "Recently, high levels of LRRK2 expression in primary microglia that are the immune cells of the nervous system have been discovered (Moehle et al., J. Neuroscience (2012), PMID 22302802). […] More recently, LRRK2 has also been detected in primary macrophages, specifically macrophages isolated after thioglycolate exposures in mice. To assess whether Example 90 can inhibit the G2019S-LRRK2 induced increase in TNF-alpha to wild-type levels of TNF-alpha induction by LPS, primary macrophages were exposed in culture to 5 μM 1 hour prior to LPS stimulation (100 ng/ml), and TNF-alpha levels were measured 6 hours later."}}}
{"smiles": "CC(Sc1ccc2nnc(-c3cccs3)n2n1)C(=O)N1CCCCC1", "note": "(stereo not drawn) [Example 90, 1-(piperidin-1-yl)-2-((3-(thiophen-2-yl)-[1,2,4]triazolo[4,3-b]pyridazin-6-yl)thio)propan-1-one]", "values": [{"measurement": "IC50", "setting": "LRRK2 (G2019S)", "value": "< 100", "unit": "nM"}, {"measurement": "levels of pS935 on LRRK2", "setting": "WT-LRRK2 or G2019S-LRRK2", "value": "partially inhibited"}, {"measurement": "TNF-alpha levels (G2019S-LRRK2 induced increase)", "setting": "G2019S-LRRK2", "value": "successfully returned G2019S-LRRK2 over-expressing cells back to WT levels"}]}
